Series [1] deals with TetR (TetR(B), tetracycline repressor) (Escherichia coli, UniProt P04483). Put plainly: SPR, TetR immobilised on CMDH chip by EDC/NHS coupling. It is filed as binding.
The target in series [2] is TetR(B) (Escherichia coli? (TetR(B) cDNA …, UniProt P04483 1-207)). Put plainly: EMSA; complex appears from 0.5 uM TetR with 0.5 uM tetO; no Dox; EMSA: 20 mM Tris-HCl pH 8.0, 50 mM NaCl, 1 mM MgCl2, 0.1 mM DTT, 15 min at room temperature; 8% PAGE in 90 mM Tris, 90 mM boric acid, 5 mM MgCl2. Conditions: protein: recombinant; (cloned NdeI-XhoI; Ni-NTA purified); chain copies: 2; label: none (ethidium bromide stain); blunt.
Chain of TetR(B) (Escherichia coli? (P04483 whole entry): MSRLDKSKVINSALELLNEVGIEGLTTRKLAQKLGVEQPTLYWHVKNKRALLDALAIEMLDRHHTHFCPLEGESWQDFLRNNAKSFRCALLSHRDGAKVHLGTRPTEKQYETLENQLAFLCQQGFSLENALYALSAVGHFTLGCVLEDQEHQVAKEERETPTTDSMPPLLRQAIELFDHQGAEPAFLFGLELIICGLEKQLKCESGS

Chain of TetR (TetR(B), tetracycline repressor) (P04483 whole entry, looked up): as the sequence (P04483 whole entry) above

A word on the Kd: it is the free concentration of one partner at which half of the binding sites on the other are occupied at equilibrium, for simple one-to-one binding. A higher Kd goes with weaker binding. In turn, `C=CCc1cccc(C=NNC(=O)CN2CCN(Cc3ccccc3)CC2)c1O` [PAC-1] displayed a Kd in series [1] of 260 µM.

B1: tetO (dsDNA)
DNA 1: CCTAATTTTTGTTGACACTCTATCATTGATAGAGTTATTTTACCACTC
DNA 2: GAGTGGTAAAATAACTCTATCAATGATAGAGTGTCAACAAAAATTAGG
Consider B1, for which, in series [2], the binding result is “binds”.

For the origin of these results see paper PMC6328932, “Procaspase activating compound 1 controls tetracycline repressor-regulated gene expression system” (Bioscience Reports, 2019).
